Data taken from paper PMC7468280 (Scientific Reports, 2020).
“Also recorded” adds a separate entry of the source. Read-outs that look alike come from different tables or passages of the source. Positions of bridges follow the written chain, without caps; N, C: chain ends. Non-standard residues stand in square brackets, D forms with d. Residues, ends and D or L forms follow the SMILES beside them. No end group written: not given here.

Legend:
[1] = 90% human serum in Hanks Balanced Salt Solution (HBSS); settings: 37 °C, up to 24 h
HIV-1BaL [2] = settings: read-out: IC50 against HIV-1BaL, TZM-bl cells sustained, peptide 1 h before virus, 48 h culture in presence of drug (sustained), luciferase, mean ± SEM of three independent experiments in triplicate
HIV-1BaL [3] = settings: human colorectal explants, p24 ELISA, mean ± SEM of three independent experiments in triplicate
Stability in human serum = format: in vitro ADME; settings: 1 mg/ml peptide, 90% human serum in HBSS, 37 °C, HPLC at 220 nm, three replicates (b16 says human plasma)
Description: Figure 3 Representation of the percentage of peptide that remains in solution with respect to the initial one at different times. The percentage is calculated by dividing the area (HPLC analysis) at time “t” by the initial area of the peptide in the test conditions. Bar errors represents SEM of three replicates. Software GraphPad Prism 5.0 (https://graphpad-prism.software.informer.com/5.0/) was used.
The stability of E1P47 peptides was studied in human serum, a protease-rich media. Briefly, a concentration of 1 mg/ml of each peptide was incubated with 90% human serum in Hanks Balanced Salt Solution (HBSS) at 37 °C and aliquots of 40 µl were taken at different time-points during 24 h and treated with 200 µl of methanol to immediately precipitate the serum proteins. After 30 min of centrifugation at 4 °C, the supernatant was analysed by HPLC at 220 nm to calculate the content of intact peptide in each sample and by UPLC/MS to identify the main metabolites generated after the enzymatic hydrolysis.

[4] = read-out: IC50 against HIV-1BaL, colorectal explants pulse, peptide 1 h before and 2 h during virus (3 h pulse), washed, 15 days culture without drug
[5] = read-out: IC50 against HIV-1BaL, colorectal explants sustained, peptide before and during virus and throughout 15 days culture (sustained)

cleaved bond [1] | not cleaved [1] | Molecule | IC50 (HIV-1BaL [2]) [µM] | IC50 (HIV-1BaL [3]; [4]) [µM] | IC50 (HIV-1BaL [3]; [5]) [µM] | stability to human plasma/serum proteases (in words) (Stability in human serum; up to 24 h) | metabolised at 8 h, 1 mg/ml (Stability in human serum; 8 h, methanol precipitation, read-out: peptide degraded at 8 h) [%]
Phe11-D12, major | intact | WILEYLWKVPFDFWRGVI-NH2 | – | – | – | – | –
– | – | CC[C@H](C)[C@H](NC(=O)[C@@H](NC(=O)CNC(=O)[C@@H]1CCCCNC(=O)C[C@H](NC(=O)[C@H](Cc2ccccc2)NC(=O)[C@@H]2CCCN2C(=O)[C@@H](NC(=O)[C@H](CCCCN)NC(=O)[C@H](Cc2c[nH]c3ccccc23)NC(=O)[C@H](CC(C)C)NC(=O)[C@H](Cc2ccc(O)cc2)NC(=O)[C@H](CCC(=O)O)NC(=O)[C@H](CC(C)C)NC(=O)[C@@H](NC(=O)[C@@H](N)Cc2c[nH]c3ccccc23)[C@@H](C)CC)C(C)C)C(=O)N[C@@H](Cc2ccccc2)C(=O)N[C@@H](Cc2c[nH]c3ccccc23)C(=O)N1)C(C)C)C(N)=O [StP1-E1P47] (H-WILEYLWKVPFDFWKGVI-NH2; lactam 12-15) | 0.11 ± 0.01 | 33 ± 27.4 | 2.8 ± 0.5 | – | –
– | – | CC[C@@H](C)[C@@H](N)C(=O)N[C@@H](C(=O)NCC(=O)N[C@H](CCCNC(=N)N)C(=O)N[C@H](Cc1c[nH]c2ccccc12)C(=O)N[C@H](Cc1ccccc1)C(=O)N[C@H](CC(=O)O)C(=O)N[C@H](Cc1ccccc1)C(=O)N1CCC[C@@H]1C(=O)N[C@@H](C(=O)N[C@H](CCCCN)C(=O)N[C@H](Cc1c[nH]c2ccccc12)C(=O)N[C@H](CC(C)C)C(=O)N[C@H](Cc1ccc(O)cc1)C(=O)N[C@H](CCC(=O)O)C(=O)N[C@H](CC(C)C)C(=O)N[C@@H](C(=O)N[C@H](Cc1c[nH]c2ccccc12)C(N)=O)[C@H](C)CC)C(C)C)C(C)C [RE-E1P47] (H-[dI][dV]G[dR][dW][dF][dD][dF][dP][dV][dK][dW][dL][dY][dE][dL][dI][dW]-NH2) | – | 28.7 ± 23.2 | 3.7 ± 1.7 | remained practically unaltered for almost 24 h | –
Trp7-K8, major | intact | WILEYLWKVPFDFWKGVI-NH2 | – | – | – | – | –
– | – | CC[C@H](C)[C@H](NC(=O)[C@@H](NC(=O)CNC(=O)[C@H](CCCNC(=N)N)NC(=O)[C@H](Cc1c[nH]c2ccccc12)NC(=O)[C@H](Cc1ccccc1)NC(=O)[C@H](CC(=O)O)NC(=O)[C@H](Cc1ccccc1)NC(=O)[C@@H]1CCCN1C(=O)[C@@H](NC(=O)[C@H](CCCCN)NC(=O)[C@H](Cc1c[nH]c2ccccc12)NC(=O)[C@H](CC(C)C)NC(=O)[C@H](Cc1ccc(O)cc1)NC(=O)[C@H](CCC(=O)O)NC(=O)[C@H](CC(C)C)NC(=O)[C@@H](NC(=O)[C@@H](N)Cc1c[nH]c2ccccc12)[C@@H](C)CC)C(C)C)C(C)C)C(N)=O [E1P47] (H-WILEYLWKVPFDFWRGVI-NH2) | 0.76 ± 0.08 | 38.5 ± 17.2 | 8 ± 4.6 | – | ~50
– | – | CC[C@H](C)[C@H](NC(=O)[C@@H](NC(=O)CNC(=O)[C@H](CCCNC(=N)N)NC(=O)[C@H](Cc1c[nH]c2ccccc12)NC(=O)[C@H](Cc1ccccc1)NC(=O)[C@H](CC(=O)O)NC(=O)[C@H](Cc1ccccc1)NC(=O)[C@@H]1CCCN1C(=O)[C@@H](NC(=O)[C@@H]1CCCCNC(=O)CC[C@H](NC(=O)[C@H](CC(C)C)NC(=O)[C@@H](NC(=O)[C@@H](N)Cc2c[nH]c3ccccc23)[C@@H](C)CC)C(=O)N[C@@H](Cc2ccc(O)cc2)C(=O)N[C@@H](CC(C)C)C(=O)N[C@@H](Cc2c[nH]c3ccccc23)C(=O)N1)C(C)C)C(C)C)C(N)=O [StP2-E1P47] (H-WILEYLWKVPFDFWRGVI-NH2; lactam 4-8) | 0.16 ± 0.01 | 32 ± 15.5 | 2.9 ± 0.4 | – | –

Molecule | cleaved bond [1] | not cleaved [1] | IC50 (HIV-1BaL [2]) [µM] | IC50 (HIV-1BaL [3]; [4]) [µM] | IC50 (HIV-1BaL [3]; [5]) [µM] | stability to human plasma/serum proteases (in words) (Stability in human serum; up to 24 h) | metabolised at 8 h, 1 mg/ml (Stability in human serum; 8 h, methanol precipitation, read-out: peptide degraded at 8 h) [%]
WILEYLWKVPFDFWRGVI | Glu4-Y5, major; also recorded: Gly16-V17, major; also recorded: Trp1-I2, major; also recorded: Phe11-D12, major; also recorded: Trp7-K8, major | – | – | – | – | – | –
